Experimental data taken from patent publication US10954488B2, “Extract of undifferentiated cells of Mimosa pudica and uses thereof in dermo-cosmetics” (PIERRE FABRE DERMO-COSMETIQUE, priority 2016, dated 2021).

Key:
[1] = system: IL-6 secretion in RAW264.7 cells; experiment: IL6 assay by ELISA in LPS-activated RAW264.7 macrophages; format: cell-based; conditions: Mus musculus, 1 μM dexamethasone 1 h before 0.2 μg/mL LPS, 24 h, read-out: inhibition of IL-6 secretion (% i)
From the text: (§1) In this example, we compare the anti-inflammatory activity of 2 Mimosa pudica extracts (E11 and E13). Extract E11 comes from ethyl acetate extraction of the dried and crushed Mimosa pudica leaves and extract E13 comes from extraction with the same solvent of the crushed materials derived from Mimosa pudica plant cell culture without bioconversion in an Erlenmeyer flask. The 2 extracts were weighed after evaporation of the solvent to dryness. They were taken up in DMSO. To evaluate and compare the anti-inflammatory activity of the 2 extracts in the same concentrations, we have an in vitro pharmacological test which consists in stimulating murine macrophages, RAW264.7 cells, that express on their surface the TLR4 receptor by the bacterial LPS according to (Kang et al. 2002. J Pharmacol Exp Ther. 302:138-144). Several parameters were studied and compared to a reference anti-inflammatory, dexamethasone: • nitrite production by the Griess technique. The nitrite level reflects the level of NO synthesis induced by inducible nitrite oxide synthase (iNOS). • cytokine secretion: interleukin-6 by ELISA • TNF-alpha production by multiplex assay Cell Culture
RAW264.7 cells are mouse macrophages in lineage. […]
(§2) Concentrations are expressed as averages. […]

[2] = system: IL4R (Interleukin 4 receptor); experiment: In vitro model of induced atopic dermatitis, RT-qPCR: IL4R; format: cell-based, human; conditions: NHEK + Poly(I:C), IL4, IL13, 24 h; 0.28 mM DEXA; control NHEK = 1
Procedure: (§3) The pharmacological model was described by Castex-Rizzi et al. (Br J Dermatol. 2014. 170 Suppl 1:12-8)
(§4) PCC extracts collected from crushed, dried, standardized Mimosa pudica culture medium W01D15 (with bioconversion) were dissolved/diluted in solution in 40% EtOH at initial concentrations of 75 mg/ml. The compounds were solubilized extemporaneously for viability tests as well as at the appropriate dose in order to measure pharmacological action on the model of induced atopic dermatitis.
(§5) Normal human epidermal keratinocytes (NHEKs) from Lonza. The cells are amplified under standard culture conditions.
(§6) NHEK cells are seeded and cultured in Keratinocyte-SFM culture medium. […]
(§7) Extraction was carried out using RNABle (Eurobio) and the RNeasy Mini Kit from QIAGEN. The total RNAs extracted are assayed on a spectrophotometer (NanoDrop, ND1000, Thermo Scientific) and their qualities analysed on agarose gel.
(§8) Real-time PCR is a precise, sensitive and rapid method that allows the relative quantification of the rate of expression of a target gene relative to that of a ubiquitously expressed reference gene. This technique makes it possible to quantify messenger RNA. […] Incorporation of a fluorophore (SYBR Green) during the hybridization step of exponential amplification allows quantification and real-time monitoring of the amount of neo-formed amplification product. […]

[3] = system: TLR3 (Toll-like receptor 3); experiment: In vitro model of induced atopic dermatitis, RT-qPCR: TLR3; format: cell-based, human; conditions: NHEK + Poly(I:C), IL4, IL13, 24 h; 0.28 mM DEXA; control NHEK = 1
Procedure: as §3, §4, §5, §6, §7, §8

[4] = system: RNASE7 (Ribonuclease, RNase A family, 7); experiment: In vitro model of induced atopic dermatitis, RT-qPCR: RNASE7; format: cell-based, human; conditions: NHEK + Poly(I:C), IL4, IL13, 24 h; 0.28 mM DEXA; control NHEK = 1
Procedure: as §3, §4, §5, §6, §7, §8

[5] = system: IFNB1 (Interferon, beta 1, fibroblast); experiment: In vitro model of induced atopic dermatitis, RT-qPCR: IFNB1; format: cell-based, human; conditions: NHEK + Poly(I:C), IL4, IL13, 24 h; 0.28 mM DEXA; control NHEK = 1
Procedure: as §3, §4, §5, §6, §7, §8

[6] = system: IL1A (Interleukin 1, alpha); experiment: In vitro model of induced atopic dermatitis, RT-qPCR: IL1A; format: cell-based, human; conditions: NHEK + Poly(I:C), IL4, IL13, 24 h; 0.28 mM DEXA; control NHEK = 1
Procedure: as §3, §4, §5, §6, §7, §8

[7] = system: CCL27 (Chemokine (C-C motif) ligand 27); experiment: In vitro model of induced atopic dermatitis, RT-qPCR: CCL27; format: cell-based, human; conditions: NHEK + Poly(I:C), IL4, IL13, 24 h; 0.28 mM DEXA; control NHEK = 1
Procedure: as §3, §4, §5, §6, §7, §8

IL8 (Interleukin 8) = experiment: In vitro model of induced atopic dermatitis, RT-qPCR: IL8; format: cell-based, human; conditions: NHEK + Poly(I:C), IL4, IL13, 24 h; 0.28 mM DEXA; control NHEK = 1
Procedure: as §3, §4, §5, §6, §7, §8

[8] = system: CCL13 (Chemokine (C-C motif) ligand 13); experiment: In vitro model of induced atopic dermatitis, RT-qPCR: CCL13; format: cell-based, human; conditions: NHEK + Poly(I:C), IL4, IL13, 24 h; 0.28 mM DEXA; control NHEK = 1
Procedure: as §3, §4, §5, §6, §7, §8

[9] = system: IL1B (Interleukin 1, beta); experiment: In vitro model of induced atopic dermatitis, RT-qPCR: IL1B; format: cell-based, human; conditions: NHEK + Poly(I:C), IL4, IL13, 24 h; 0.28 mM DEXA; control NHEK = 1
Procedure: as §3, §4, §5, §6, §7, §8

CX3CL1 (Fractalkine) = experiment: In vitro model of induced atopic dermatitis, RT-qPCR: CX3CL1; format: cell-based, human; conditions: NHEK + Poly(I:C), IL4, IL13, 24 h; 0.28 mM DEXA; control NHEK = 1
Procedure: as §3, §4, §5, §6, §7, §8

[10] = system: S100A7 (S100 calcium binding protein A7); experiment: In vitro model of induced atopic dermatitis, RT-qPCR: S100A7; format: cell-based, human; conditions: NHEK + Poly(I:C), IL4, IL13, 24 h; 0.28 mM DEXA; control NHEK = 1
Procedure: as §3, §4, §5, §6, §7, §8

[11] = system: TSLP (Thymic stromal lymphopoietin); experiment: In vitro model of induced atopic dermatitis, RT-qPCR: TSLP; format: cell-based, human; conditions: NHEK + Poly(I:C), IL4, IL13, 24 h; 0.28 mM DEXA; control NHEK = 1
Procedure: as §3, §4, §5, §6, §7, §8

IL15 (Interleukin 15) = experiment: In vitro model of induced atopic dermatitis, RT-qPCR: IL15; format: cell-based, human; conditions: NHEK + Poly(I:C), IL4, IL13, 24 h; 0.28 mM DEXA; control NHEK = 1
Procedure: as §3, §4, §5, §6, §7, §8

[12] = system: CCL11 (Chemokine (C-C motif) ligand 11); experiment: In vitro model of induced atopic dermatitis, RT-qPCR: CCL11; format: cell-based, human; conditions: NHEK + Poly(I:C), IL4, IL13, 24 h; 0.28 mM DEXA; control NHEK = 1
Procedure: as §3, §4, §5, §6, §7, §8

[13] = system: DEFB103A (Defensin, beta 103B); experiment: In vitro model of induced atopic dermatitis, RT-qPCR: DEFB103A; format: cell-based, human; conditions: NHEK + Poly(I:C), IL4, IL13, 24 h; 0.28 mM DEXA; control NHEK = 1
Procedure: as §3, §4, §5, §6, §7, §8

[14] = system: TNF-alpha production in RAW264.7 cells; experiment: TNF-alpha Luminex assay in LPS-activated RAW264.7 macrophages; format: cell-based; conditions: Mus musculus, 1 μM dexamethasone 1 h before 0.2 μg/mL LPS, 24 h, read-out: inhibition of TNF-alpha production (% i)
From the text: as §1, with “Several parameters were studied and compared to a reference anti-inflammatory, dexamethasone: • nitrite production by the Griess technique. The nitrite level reflects the level of NO synthesis induced by inducible nitrite oxide synthase (iNOS). • cytokine secretion: interleukin-6 by ELISA • TNF-alpha production by multiplex assay Cell Culture” left out
Simultaneous assay of TNF-alpha in the cell supernatants was performed using the Luminex xMAP (multi-analyte profiling) technology which is based on the principles of flow cytometry and ELISA in a 96-well microplate. The microbeads used as substrate incorporate two fluorochromes in a precise ratio, which gives them an identifying colour code (different fluorescences). […] The second laser, green, (λ=532 nm) excites the reporter fluorochrome attached to the specific detection antibody in order to quantify the cytokine. […]
as §2

[15] = system: nitrite production (NO synthesis induced by iNOS) in RAW264.7 cells; experiment: Nitrite assay (Griess) in LPS-activated RAW264.7 macrophages; format: cell-based; conditions: Mus musculus, 1 μM dexamethasone 1 h before 0.2 μg/mL LPS, 24 h, read-out: inhibition of nitrite production (% i)
From the text: as §1, with “The nitrite level reflects the level of NO synthesis induced by inducible nitrite oxide synthase (iNOS). • cytokine secretion: interleukin-6 by ELISA • TNF-alpha production by multiplex assay Cell Culture” left out
The level of NO synthesis is evaluated in fresh or frozen (−80° C.) cell supernatants, without affecting the assay. The principle of the assay is based on the Griess (diazotization) reaction which produces a pink azo compound with absorbance at 540 nm.
as §2

[16] = system: CCL20 (Chemokine (C-C motif) ligand 20); experiment: In vitro model of induced atopic dermatitis, RT-qPCR: CCL20; format: cell-based, human; conditions: NHEK + Poly(I:C), IL4, IL13, 24 h; 0.28 mM DEXA; control NHEK = 1
Procedure: as §3, §4, §5, §6, §7, §8

[17] = system: CCL5 (Chemokine (C-C motif) ligand 5); experiment: In vitro model of induced atopic dermatitis, RT-qPCR: CCL5; format: cell-based, human; conditions: NHEK + Poly(I:C), IL4, IL13, 24 h; 0.28 mM DEXA; control NHEK = 1
Procedure: as §3, §4, §5, §6, §7, §8

With C[C@@H]1C[C@H]2[C@@H]3CCC4=CC(=O)C=C[C@]4(C)[C@@]3(F)[C@@H](O)C[C@]2(C)[C@@]1(O)C(=O)CO [dexamethasone] the inhibition at 1 µM [1] was 38%, the “relative expression (RQ) of IL4R” value [2] was 7.03 and the “relative expression (RQ) of TLR3” value [3] was 2.79. For the same molecule, the “relative expression (RQ) of RNASE7” value [4] was 43.23, the “relative expression (RQ) of IFNB1” value [5] was 1.90 and the “relative expression (RQ) of IL1A” value [6] was 8.54. The “relative expression (RQ) of CCL27” value [7] was 0.71, the “relative expression (RQ) of IL8” value (IL8 (Interleukin 8)) was 7.89 and the “relative expression (RQ) of CCL13” value [8] was 1.98. The “relative expression (RQ) of IL1B” value [9] was 2.63, the “relative expression (RQ) of CX3CL1” value (CX3CL1 (Fractalkine)) was 36.63 and the “relative expression (RQ) of S100A7” value [10] was 79.12. For the same molecule, the “relative expression (RQ) of TSLP” value [11] was 1.80, the “relative expression (RQ) of IL15” value (IL15 (Interleukin 15)) was 29.16 and the “relative expression (RQ) of CCL11” value [12] was 1.14. For the same molecule, the “relative expression (RQ) of DEFB103A” value [13] was 107.56, the inhibition at 1 µM [14] was 16% and the inhibition at 1 µM [15] was 35%. For the same molecule, the “relative expression (RQ) of CCL20” value [16] was 28.94 and the “relative expression (RQ) of CCL5” value [17] was 49.90.
